For the experiment, the system named is 4E10 mAb. Put plainly: Binding of chromophore labeled tetramers to 4E10 antibody coated beads. The settings on record: chromophore on tetramer-SA complex. An excerpt: FIGS. 6A-6F: Binding of chromophore labeled tetramers to 4E10 antibody coated beads. In all panels, shaded curves show binding to control Ig-coated beads and solid lines show binding to 4E10 coated beads. FIG. 6A. 2F5-epitope tetramers labeled with APC. FIG. 6B. 2F5-epitope tetramers labeled with PE-AF680. FIG. 6C. V3-epitope tetramers labeled with PE-AF750. FIG. 6D. Scrambled 2F5-epitope tetramers labeled with APC. FIG. 6E. Scrambled 2F5-epitope tetramers labeled with PE-AF680. FIG. 6F. Scrambled V3-epitope tetramers labeled with PE-AF750. Thus, 4E10 mAb binds to phycoerythrin on any tetramer-SA complex.
The specificity of the tetramers can be determined using a panel of murine hybridoma cell lines that produce either antibodies that react with the 2F5 epitope (5A9), the 4E10 epitope of HIV gp41 (10B12) or the V3 region of HIV gp120 (7B9 or F39F). Using these cell lines, the B cell tetramer can be bound to the cell line and assayed for binding by, for example, flow cytometry (FIGS. 4A and 4B). Alternatively, the 2F5, 4E10 anti-MPER and 7B9 anti-V3 mAbs can be conjugated to, for example, a […], and the specificity of tetramer binding to the beads determined (FIG. 5).
Studies conducted have shown that a mimetope of the MPER 4E10 region is phycoerythrin, in that 4E10 mAb coated beads bound tetramer labeled with phycoerythrin but not allophycocyanin (APC) (FIG. 6). […]

“Also recorded” adds a separate entry of the source.

On to phycoerythrin, for which the “binding to 4E10 mAb coated beads” value was “binds; also recorded: bound”. allophycocyanin [allophycocyanin (APC)]: the “binding to 4E10 mAb coated beads” value was “not”.
